According to PubChem BioAssay (NCI):
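In this assay, cells in 96-well plates receive the compound at five concentrations for 48 hours. Endpoints are linearly interpolated between the surrounding concentrations. GI50: concentration for 50% inhibition of growth. TGI denotes the concentration required for complete inhibition of growth.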

What was measured:
Test in all cases: NCI anticancer screen, dose series, 48 h
SW-620 colon = system: SW-620 colon
MDA-MB-231 breast = system: MDA-MB-231 breast
HOP-92 NSCLC = system: HOP-92 NSCLC
NCI-H23 lung = system: NCI-H23 lung
SF-295 CNS = system: SF-295 CNS
UACC-257 melanoma = system: UACC-257 melanoma
DU-145 prostate = system: DU-145 prostate
UO-31 renal = system: UO-31 renal
OVCAR-8 ovarian = system: OVCAR-8 ovarian
K-562 leukemia = system: K-562 leukemia
SK-MEL-2 melanoma = system: SK-MEL-2 melanoma
T-47D breast = system: T-47D breast
MCF7 breast = system: MCF7 breast
NCI-H460 lung = system: NCI-H460 lung
U251 CNS = system: U251 CNS
KM12 colon = system: KM12 colon
SNB-75 CNS = system: SNB-75 CNS
OVCAR-4 ovarian = system: OVCAR-4 ovarian
HL-60(TB) leukemia = system: HL-60(TB) leukemia
OVCAR-5 ovarian = system: OVCAR-5 ovarian
NCI-H522 lung = system: NCI-H522 lung
786-0 renal = system: 786-0 renal
MDA-MB-435 = system: MDA-MB-435
SK-MEL-28 melanoma = system: SK-MEL-28 melanoma
PC-3 prostate = system: PC-3 prostate
SN12C renal = system: SN12C renal
EKVX NSCLC = system: EKVX NSCLC
COLO 205 colon = system: COLO 205 colon
CCRF-CEM leukemia = system: CCRF-CEM leukemia
A498 renal = system: A498 renal
NCI/ADR-RES ovarian = system: NCI/ADR-RES ovarian
SK-MEL-5 melanoma = system: SK-MEL-5 melanoma
SF-268 CNS = system: SF-268 CNS
BT-549 breast = system: BT-549 breast
HCT-116 colon = system: HCT-116 colon
A549 NSCLC = system: A549 NSCLC
MALME-3M melanoma = system: MALME-3M melanoma
TK-10 renal = system: TK-10 renal
ACHN renal = system: ACHN renal
UACC-62 melanoma = system: UACC-62 melanoma
HS 578T breast = system: HS 578T breast
M14 melanoma = system: M14 melanoma
SR leukemia = system: SR leukemia
CAKI-1 renal = system: CAKI-1 renal
SK-OV-3 ovarian = system: SK-OV-3 ovarian
HCC-2998 colon = system: HCC-2998 colon
NCI-H226 lung = system: NCI-H226 lung
IGROV1 ovarian = system: IGROV1 ovarian
MOLT-4 leukemia = system: MOLT-4 leukemia
SF-539 CNS = system: SF-539 CNS
HCT-15 colon = system: HCT-15 colon
HOP-62 NSCLC = system: HOP-62 NSCLC
SNB-19 CNS = system: SNB-19 CNS
LOX IMVI melanoma = system: LOX IMVI melanoma
OVCAR-3 ovarian = system: OVCAR-3 ovarian
HT29 colon = system: HT29 colon
RPMI-8226 leukemia = system: RPMI-8226 leukemia

With CC(Nc1ncnc2ccc(-c3cnc(N)nc3)cc12)c1ccccc1 (centres undefined) the GI50 (SW-620 colon) was 15.2 µM, the TGI (SW-620 colon) was 51.7 µM and the GI50 (MDA-MB-231 breast) was 3.38 µM. The TGI (MDA-MB-231 breast) was 15.5 µM, the GI50 (HOP-92 NSCLC) was 1.04 µM and the TGI (HOP-92 NSCLC) was 5.62 µM. The GI50 (NCI-H23 lung) was 9.2 µM, the TGI (NCI-H23 lung) was 37.4 µM and the GI50 (SF-295 CNS) was 4.5 µM. For the same compound, the TGI (SF-295 CNS) was 27 µM, the GI50 (UACC-257 melanoma) was 23.9 µM and the TGI (UACC-257 melanoma) was over 100 µM. For the same compound, the GI50 (DU-145 prostate) was 4.34 µM, the TGI (DU-145 prostate) was over 100 µM and the GI50 (UO-31 renal) was 1.29 µM. The TGI (UO-31 renal) was 16.4 µM, the GI50 (OVCAR-8 ovarian) was 10.8 µM and the TGI (OVCAR-8 ovarian) was 30.2 µM. For the same compound, the GI50 (K-562 leukemia) was 6.32 µM, the TGI (K-562 leukemia) was over 100 µM and the GI50 (SK-MEL-2 melanoma) was 20.4 µM. It also gave a TGI (SK-MEL-2 melanoma) of over 100 µM, a GI50 (T-47D breast) of 1.91 µM and a TGI (T-47D breast) of 46.4 µM. It also gave a GI50 (MCF7 breast) of 4.1 µM, a TGI (MCF7 breast) of 24.4 µM and a GI50 (NCI-H460 lung) of 4.79 µM. The TGI (NCI-H460 lung) was 31.1 µM, the GI50 (U251 CNS) was 6.92 µM and the TGI (U251 CNS) was 60 µM. For the same compound, the GI50 (KM12 colon) was 7.91 µM, the TGI (KM12 colon) was 36.3 µM and the GI50 (SNB-75 CNS) was 2.76 µM. The TGI (SNB-75 CNS) was 23.1 µM, the GI50 (OVCAR-4 ovarian) was 4.55 µM and the TGI (OVCAR-4 ovarian) was 43.4 µM. It also gave a GI50 (HL-60(TB) leukemia) of 14.8 µM, a TGI (HL-60(TB) leukemia) of 43.7 µM and a GI50 (OVCAR-5 ovarian) of 3.4 µM. For the same compound, the TGI (OVCAR-5 ovarian) was 37.5 µM, the GI50 (NCI-H522 lung) was 4.9 µM and the TGI (NCI-H522 lung) was over 100 µM. It also gave a GI50 (786-0 renal) of 5.33 µM, a TGI (786-0 renal) of over 100 µM and a GI50 (MDA-MB-435) of 11.1 µM. For the same compound, the TGI (MDA-MB-435) was 42 µM, the GI50 (SK-MEL-28 melanoma) was 9.05 µM and the TGI (SK-MEL-28 melanoma) was 53.1 µM. The GI50 (PC-3 prostate) was 4.05 µM, the TGI (PC-3 prostate) was over 100 µM and the GI50 (SN12C renal) was 2.9 µM. It also gave a TGI (SN12C renal) of 15.7 µM, a GI50 (EKVX NSCLC) of 1.97 µM and a TGI (EKVX NSCLC) of 10.4 µM. For the same compound, the GI50 (COLO 205 colon) was 13.5 µM, the TGI (COLO 205 colon) was 47.5 µM and the GI50 (CCRF-CEM leukemia) was 7.7 µM. For the same compound, the TGI (CCRF-CEM leukemia) was over 100 µM, the GI50 (A498 renal) was 1.42 µM and the TGI (A498 renal) was 6.52 µM. It also gave a GI50 (NCI/ADR-RES ovarian) of 9.42 µM, a TGI (NCI/ADR-RES ovarian) of 47.3 µM and a GI50 (SK-MEL-5 melanoma) of 7.28 µM. For the same compound, the TGI (SK-MEL-5 melanoma) was 20.8 µM, the GI50 (SF-268 CNS) was 5.26 µM and the TGI (SF-268 CNS) was 34.5 µM. It also gave a GI50 (BT-549 breast) of 2.22 µM, a TGI (BT-549 breast) of 12 µM and a GI50 (HCT-116 colon) of 8.01 µM. For the same compound, the TGI (HCT-116 colon) was 24.3 µM, the GI50 (A549 NSCLC) was 6.48 µM and the TGI (A549 NSCLC) was over 100 µM. The GI50 (MALME-3M melanoma) was 3.03 µM, the TGI (MALME-3M melanoma) was 19.5 µM and the GI50 (TK-10 renal) was 1.59 µM. For the same compound, the TGI (TK-10 renal) was 14.2 µM, the GI50 (ACHN renal) was 3.02 µM and the TGI (ACHN renal) was 18.6 µM. It also gave a GI50 (UACC-62 melanoma) of 4.48 µM, a TGI (UACC-62 melanoma) of 18.2 µM and a GI50 (HS 578T breast) of 2.15 µM. It also gave a TGI (HS 578T breast) of 8.64 µM, a GI50 (M14 melanoma) of 6.76 µM and a TGI (M14 melanoma) of 31.6 µM. It also gave a GI50 (SR leukemia) of 4.08 µM, a TGI (SR leukemia) of over 100 µM and a GI50 (CAKI-1 renal) of 3.17 µM. For the same compound, the TGI (CAKI-1 renal) was 17.8 µM, the GI50 (SK-OV-3 ovarian) was 6.67 µM and the TGI (SK-OV-3 ovarian) was over 100 µM. It also gave a GI50 (HCC-2998 colon) of 8.05 µM, a TGI (HCC-2998 colon) of 50.8 µM and a GI50 (NCI-H226 lung) of 3.57 µM. The TGI (NCI-H226 lung) was 22 µM, the GI50 (IGROV1 ovarian) was 1.95 µM and the TGI (IGROV1 ovarian) was 8.26 µM. For the same compound, the GI50 (MOLT-4 leukemia) was 5.37 µM, the TGI (MOLT-4 leukemia) was over 100 µM and the GI50 (SF-539 CNS) was 6.2 µM. It also gave a TGI (SF-539 CNS) of 19.2 µM, a GI50 (HCT-15 colon) of 4.12 µM and a TGI (HCT-15 colon) of 54.6 µM. For the same compound, the GI50 (HOP-62 NSCLC) was 5.76 µM, the TGI (HOP-62 NSCLC) was over 100 µM and the GI50 (SNB-19 CNS) was 9.29 µM. It also gave a TGI (SNB-19 CNS) of 44.1 µM, a GI50 (LOX IMVI melanoma) of 4.26 µM and a TGI (LOX IMVI melanoma) of 16.9 µM. For the same compound, the GI50 (OVCAR-3 ovarian) was 4.59 µM, the TGI (OVCAR-3 ovarian) was 20.1 µM and the GI50 (HT29 colon) was 8.41 µM. For the same compound, the TGI (HT29 colon) was 46.4 µM, the GI50 (RPMI-8226 leukemia) was 4.66 µM and the TGI (RPMI-8226 leukemia) was 42.9 µM.
